In PMC5854716, “Synthesis, molecular docking, ctDNA interaction, DFT calculation and evaluation of antiproliferative and anti-Toxoplasma gondii activities of 2,4-diaminotriazine-thiazole derivatives” (Medicinal Chemistry Research, 2018):

What was measured:
[1] = tested on: human lung carcinoma A549 cells; test: In vitro antiproliferative assay (SRB), A549; format: cell-based; settings: mean ± SD; for IC50: Homo sapiens, A549, 72 h exposure
Procedure: Biphenotypic B myelomonocytic leukemia MV4-11, human lung carcinoma A549, human breast carcinoma MCF-7, and normal mouse fibroblast BALB/3T3 cells were obtained from American Type Culture Collection (Rockville, Maryland, USA). All the cell lines are being maintained at the Institute of Immunology and Experimental Therapy, Wroclaw, Poland. MV4-11 cells were cultured in RPMI 1640 medium (Gibco, UK) with 2 mM L-glutamine adjusted to contain 1.0 mM sodium pyruvate, and 10% fetal bovine serum (FBS) (all from Sigma-Aldrich, Germany). A549 cells were cultured in RPMI 1640+ Opti-MEM (1:1) (both from Gibco, UK), MCF-7 cells in Eagle medium (IIET, Wroclaw, Poland), BALB/3T3 in Dulbecco medium (IIET, Poland) supplemented with 2 mM L-glutamine and 1.0 mM sodium pyruvate, 10% fetal bovine serum (all from Sigma-Aldrich, Germany). The MCF-7 cell culture was supplemented with 0.8 mg/l of insulin (Sigma-Aldrich, Germany). All culture media were supplemented with 100 units/ml penicillin, and 100 µg/ml streptomycin (both from Polfa Tarchomin S.A., Poland). All cell lines were grown at 37 °C with 5% CO2 humidified atmosphere (Łączkowski et al. [2014], [2016a]). Prior to usage, the compounds were dissolved in DMSO and culture medium (1: 9) to the concentration of 1 mg/ml, and subsequently diluted in culture medium to reach the required concentrations (0.1, 1, 10, and 100 µg/ml) (Łączkowski et al. [2014], [2016a]). Twenty-four hours prior to the addition of the tested compounds, the cells counted using Burker hemocytometer were plated in 96-well plates (Sarstedt, Germany) at a density of 1 × 10^4 cells per well. The assay was performed after 72 h of exposure to varying concentrations of the tested agents. The in vitro cytotoxic effect of all agents was examined using the SRB assay for adherent cells (A549, MCF-7, and BALB/3T3) or MTT assay for leukemia cells (MV4-11) as described previously. […] Each compound in each concentration was tested in triplicate in a single experiment, which was repeated 3–7 times (Rubinstein et al. [1990]; Bramson et al. [1995]). Cells were attached to the bottom of plastic wells by fixing them with cold 50% TCA (trichloroacetic acid, POCH, Gliwice, Poland) on top of the culture medium in each well. The plates were incubated at 4 °C for 1 h and then washed five times with tap water. The cellular material fixed with TCA was stained with 0.1% sulforhodamine B (SRB, Sigma-Aldrich, Germany) and dissolved in 1% acetic acid (POCH, Gliwice, Poland) for 30 min. Unbound dye was removed by rinsing (4×) in 1% acetic acid. The protein-bound dye was extracted with 10 mM unbuffered Tris base (Sigma-Aldrich, Germany) for determination of the optical density (λ = 540 nm) in a computer-interfaced, 96-well Synergy H4 (BioTek Instruments USA) photometer microtiter plate reader (Sidoryk et al. [2012]).

mouse L929 fibroblast = test: Cell viability assay (MTT), L929; format: cell-based; settings: concentration for 30% proliferation inhibition, 24 h
Procedure: (§1) The epithelial cell line VERO (ATCC-Catalog No. CCL-81^TM), derived from the kidney of the African green monkey, Cercopithecus aethiops and fibroblast cell line L-929 (ATCC-Catalog No. CCL-1^TM), derived from Mus musculus (http://www.atcc.org) were grown in Iscoves’s Modified Dulbecco’s Medium (IMDM) supplemented with 10% (v/v) fetal bovine serum (FBS), plus 2 mM L-glutamine, 100 U/ml penicillin, 100.00 µg/ml streptomycin, 5 × 10^−5 M 2-mercaptoethanol and maintained at 37 °C in a 10% CO2 atmosphere. Subcultures were performed via enzymatic cell dissociation in 0.25% trypsin. After dissociation, the cells were placed in culture medium at 4 °C with 10% FBS to inhibit the action of trypsin. The isolated cells were centrifuged for 10 min at 1000×g at 4 °C, and the cells were grown in new bottles. This procedure was repeated when cells reached a confluence of ~90%. All commercial reactants and solvents were purchased from either Sigma-Aldrich Laborchemikalien GmbH (Dzitko et al. [2014]).
(§2) Suspensions of the compounds 4a–l were freshly prepared (5 mg/ml DMSO) before the cells were exposed, and diluted to appropriate concentrations; 0.9, 1.8, 3.9, 7.8, 15.6, 31.2, 62.5, and 125.00 μg/ml with the culture medium. Cells treated with 2.5% DMSO-solvent served as a control in each experiment.
(§3) The effects of tested compounds on the viability of mouse fibroblasts L929 and […] VERO cells were evaluated using the MTT assay. The MTT assay was used according to international standards: ISO 10993-5:2009 (Tests for in vitro cytotoxicity; http://www.iso.org/iso/catalogue_detail.htm? csnumber = 36406). L929 and VERO cells were plated into 96-well plates at a density of 1.0 × 10^4/100 μl/well in culture medium and allowed to attach for 24 h before treatment. Afterwards, culture medium in the plates was replaced by 100 μl compounds suspension at concentration of 0–125 μg/ml and the cells were exposed for 24 h. Then 1 mg/ml MTT (50 μl/well) was added to each well and incubated at 37 °C, 10 % CO2 for 2 h. Mitochondrial dehydrogenases of viable cells reduce the yellowish water-soluble MTT to water-insoluble formazan crystals, which were solubilized with dimethyl sulfoxide (DMSO). The cell culture medium was aspirated cautiously, after which 150 μl DMSO was added to each well and mixed thoroughly. Optical density (OD) was read on the ELISA reader (Multiskan EX, Labsystems; http://www.mtxlsi.com/multiskan_EX.htm) at 550 nm. The results were expressed as percentage viability compared with the treated 2.5% DMSO controls. All experiments were performed in triplicate.

[2] = Cell viability assay (MTT), VERO; format: cell-based, Cercopithecus aethiops; settings: African green monkey (Cercopithecus aethiops), VERO kidney epithelial cells
Procedure: as §1, §2, §3

VERO cells = test: Cell viability assay (MTT), VERO; format: cell-based, Cercopithecus aethiops; settings: concentration for 30% proliferation inhibition, 24 h
Procedure: as §1, §2, §3

## C/C(=N\Nc1nc(-c2ccccc2)cs1)c1ccc(Nc2nc(N)nc(N)n2)cc1 [Compound 4k, (E)-N^2-(4-(1-(2-(4-phenyl-1,3-thiazol-2-yl)hydrazinylidene)ethyl)phenyl)-1,3,5-triazine-2,4,6-triamine]
[1]; 72 h exposure
  IC50 A549: no antiproliferative activity
Mouse L929 fibroblast
  CC30 L929: >125.0 µg/mL
[2]
  viability at 24 h, 0.9 µg/ml: 91.9%
  viability at 24 h, 1.8 µg/ml: 95.5%
  viability at 24 h, 3.9 µg/ml: 99.3%
  viability at 24 h, 7.8 µg/ml: 95.7%
  viability at 24 h, 15.6 µg/ml: 104%
  viability at 24 h, 31.2 µg/ml: 106%
  viability at 24 h, 62.5 µg/ml: 113%
  viability at 24 h, 125 µg/ml: 113%
VERO cells
  CC30 VERO: >125.0 µg/mL
other
  melting point: > 300 °C

## C/C(=N\Nc1nc(-c2ccc(F)cc2)cs1)c1ccc(Nc2nc(N)nc(N)n2)cc1 [Compound 4a, (E)-N^2-(4-(1-(2-(4-(4-fluorophenyl)-1,3-thiazol-2-yl)hydrazinylidene)ethyl)phenyl)-1,3,5-triazine-2,4,6-triamine]
[1]
  IC50: 38.6 ± 4.17 µg/mL
Mouse L929 fibroblast
  CC30 L929: >125.0 µg/mL
[2]
  viability at 24 h, 0.9 µg/ml: 90.5%
  viability at 24 h, 1.8 µg/ml: 97.6%
  viability at 24 h, 3.9 µg/ml: 100%
  viability at 24 h, 7.8 µg/ml: 95.9%
  viability at 24 h, 15.6 µg/ml: 103%
  viability at 24 h, 31.2 µg/ml: 107%
  viability at 24 h, 62.5 µg/ml: 105%
  viability at 24 h, 125 µg/ml: 100%
VERO cells
  CC30 VERO: >125.0 µg/mL
other
  melting point: 223 to 225 °C

## C/C(=N\Nc1nc(-c2ccc(Br)cc2)cs1)c1ccc(Nc2nc(N)nc(N)n2)cc1 [Compound 4d, (E)-N^2-(4-(1-(2-(4-(4-bromophenyl)-1,3-thiazol-2-yl)hydrazinylidene)ethyl)phenyl)-1,3,5-triazine-2,4,6-triamine]
[1]
  IC50: 24.7 ± 6.1 µg/mL
Mouse L929 fibroblast
  CC30 L929: >125.0 µg/mL
[2]
  viability at 24 h, 0.9 µg/ml: 99.9%
  viability at 24 h, 1.8 µg/ml: 94.4%
  viability at 24 h, 3.9 µg/ml: 90.1%
  viability at 24 h, 7.8 µg/ml: 86%
  viability at 24 h, 15.6 µg/ml: 104%
  viability at 24 h, 31.2 µg/ml: 114%
  viability at 24 h, 62.5 µg/ml: 100%
  viability at 24 h, 125 µg/ml: 112%
VERO cells
  CC30 VERO: >125.0 µg/mL
other
  melting point: 226 to 230 °C

## C/C(=N\Nc1nc(-c2ccc(I)cc2)cs1)c1ccc(Nc2nc(N)nc(N)n2)cc1 [Compound 4e, (E)-N^2-(4-(1-(2-(4-(4-iodophenyl)-1,3-thiazol-2-yl)hydrazinylidene)ethyl)phenyl)-1,3,5-triazine-2,4,6-triamine]
[1]
  IC50: 45.4 ± 18.3 µg/mL
Mouse L929 fibroblast
  CC30 L929: >125.0 µg/mL
[2]
  viability at 24 h, 0.9 µg/ml: 100%
  viability at 24 h, 1.8 µg/ml: 100%
  viability at 24 h, 3.9 µg/ml: 97%
  viability at 24 h, 7.8 µg/ml: 87.3%
  viability at 24 h, 15.6 µg/ml: 101%
  viability at 24 h, 31.2 µg/ml: 113%
  viability at 24 h, 62.5 µg/ml: 117%
  viability at 24 h, 125 µg/ml: 113%
VERO cells
  CC30 VERO: >125.0 µg/mL
other
  melting point: 248 to 251 °C

## C/C(=N\Nc1nc(-c2ccc(C)cc2)cs1)c1ccc(Nc2nc(N)nc(N)n2)cc1 [Compound 4c, (E)-N^2-(4-(1-(2-(4-(4-tolyl)-1,3-thiazol-2-yl)hydrazinylidene)ethyl)phenyl)-1,3,5-triazine-2,4,6-triamine]
[1]
  IC50: 62.4 ± 11.5 µg/mL
Mouse L929 fibroblast
  CC30 L929: >125.0 µg/mL
[2]
  viability at 24 h, 0.9 µg/ml: 92.4%
  viability at 24 h, 1.8 µg/ml: 102%
  viability at 24 h, 3.9 µg/ml: 99%
  viability at 24 h, 7.8 µg/ml: 101%
  viability at 24 h, 15.6 µg/ml: 99.6%
  viability at 24 h, 31.2 µg/ml: 102%
  viability at 24 h, 62.5 µg/ml: 112%
  viability at 24 h, 125 µg/ml: 109%
VERO cells
  CC30 VERO: >125.0 µg/mL
other
  melting point: 231 to 233 °C

## C/C(=N\Nc1nc(-c2ccc(Cl)cc2)cs1)c1ccc(Nc2nc(N)nc(N)n2)cc1 [Compound 4b, (E)-N^2-(4-(1-(2-(4-(4-chlorophenyl)-1,3-thiazol-2-yl)hydrazinylidene)ethyl)phenyl)-1,3,5-triazine-2,4,6-triamine]
[1]
  IC50: 23.8 ± 4.41 µg/mL
Mouse L929 fibroblast
  CC30 L929: >125.0 µg/mL
[2]
  viability at 24 h, 0.9 µg/ml: 93.5%
  viability at 24 h, 1.8 µg/ml: 95.8%
  viability at 24 h, 3.9 µg/ml: 90.1%
  viability at 24 h, 7.8 µg/ml: 94.7%
  viability at 24 h, 15.6 µg/ml: 103%
  viability at 24 h, 31.2 µg/ml: 115%
  viability at 24 h, 62.5 µg/ml: 115%
  viability at 24 h, 125 µg/ml: 113%
VERO cells
  CC30 VERO: >125.0 µg/mL
other
  melting point: 237 to 239 °C
